Measured values reported in patent US12077503B2, “Substituted cyclic amides and their use as herbicides” (FMC CORPORATION, priority 2015, dated 2024).

Assays:
Format in all cases: in vivo
corn (Zea mays) = test: Test C preemergence; conditions: for Plant response rating, Corn: scale 0 to 100, 0 no effect, 100 complete control
How it was run: (§1)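 Assessment: visual, 13–15 d after treatment, 0 (no effect) to 100 (complete control) relative to controls. Treatment: preemergence to seeds in loam-sand soil, or postemergence to 1- to 4-leaf plants in peat-based medium. Formulation: non-phytotoxic solvent mixture with surfactant.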

[1] = system: morningglory (Ipomoea coccinea); test: Test C preemergence; conditions: for Plant response rating, Morningglory: scale 0 to 100, 0 no effect, 100 complete control
How it was run: as §1

[2] = system: nutsedge, yellow (yellow nutsedge, Cyperus esculentus); test: Test C preemergence; conditions: for Plant response rating, Nutsedge, Yellow: scale 0 to 100, 0 no effect, 100 complete control
How it was run: as §1

[3] = system: barnyardgrass (Echinochloa crus-galli); test: Test C preemergence; conditions: for Plant response rating, Barnyardgrass: scale 0 to 100, 0 no effect, 100 complete control
How it was run: as §1

[4] = system: foxtail, giant (giant foxtail, Setaria faberii); test: Test C preemergence; conditions: for Plant response rating, Foxtail, Giant: scale 0 to 100, 0 no effect, 100 complete control
How it was run: as §1

[5] = system: wheat (winter wheat, Triticum aestivum); test: Test C preemergence; conditions: for Plant response rating, Wheat: scale 0 to 100, 0 no effect, 100 complete control
How it was run: as §1

[6] = system: ragweed (common ragweed, Ambrosia elatior); test: Test C preemergence; conditions: for Plant response rating, Ragweed: scale 0 to 100, 0 no effect, 100 complete control
How it was run: as §1

[7] = system: blackgrass (Alopecurus myosuroides); test: Test C preemergence; conditions: for Plant response rating, Blackgrass: scale 0 to 100, 0 no effect, 100 complete control
How it was run: as §1

[8] = system: ryegrass, Italian (Italian ryegrass, Lolium multiflorum); test: Test C preemergence; conditions: for Plant response rating, Ryegrass, Italian: scale 0 to 100, 0 no effect, 100 complete control
How it was run: as §1

[9] = system: velvetleaf (Abutilon theophrasti); test: Test C preemergence; conditions: for Plant response rating, Velvetleaf: scale 0 to 100, 0 no effect, 100 complete control
How it was run: as §1

soybean (Glycine max) = test: Test C preemergence; conditions: for Plant response rating, Soybean: scale 0 to 100, 0 no effect, 100 complete control
How it was run: as §1

[10] = system: oilseed rape (Brassica napus); test: Test C preemergence; conditions: for Plant response rating, Oilseed Rape: scale 0 to 100, 0 no effect, 100 complete control
How it was run: as §1

[11] = system: pigweed (Amaranthus retroflexus); test: Test C preemergence; conditions: for Plant response rating, Pigweed: scale 0 to 100, 0 no effect, 100 complete control
How it was run: as §1

[12] = system: Galium (catchweed bedstraw, Galium aparine); test: Test C preemergence; conditions: for Plant response rating, Galium: scale 0 to 100, 0 no effect, 100 complete control
How it was run: as §1

[13] = system: waterhemp (common waterhemp, Amaranthus rudis); test: Test C preemergence; conditions: for Plant response rating, Waterhemp: scale 0 to 100, 0 no effect, 100 complete control
How it was run: as §1

[14] = system: johnsongrass (Sorghum halepense); test: Test C preemergence; conditions: for Plant response rating, Johnsongrass: scale 0 to 100, 0 no effect, 100 complete control
How it was run: as §1

[15] = system: crabgrass, large (large crabgrass, Digitaria sanguinalis); test: Test C preemergence; conditions: for Plant response rating, Crabgrass, Large: scale 0 to 100, 0 no effect, 100 complete control
How it was run: as §1

[16] = system: barnyardgrass (Echinochloa crus-galli); test: Test C flooded paddy test; conditions: Flood, 0 is no effect, 100 is complete control
How it was run: (§2)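 Compound was added directly to paddy water held 3 cm above the soil, with plants at the 2-leaf stage. Injury was scored visually versus untreated controls after 13–15 d greenhouse growth, using a 0–100 scale where 100 means complete control.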

rice (Oryza sativa) = test: Test C flooded paddy test; conditions: Flood, 0 is no effect, 100 is complete control
How it was run: as §2

[17] = 31 g ai/ha, 0 is no effect, 100 is complete control

Compound: CN1CC(c2cccc(C(F)(F)F)c2)C(C(=O)Nc2ccccc2S(C)(=O)=O)C1=O (stereo not shown) [Compound 637]
- Plant response rating (scale of 0 to 100), Corn (corn (Zea mays); [17]): 35
- Plant response rating, Corn (corn (Zea mays); 62 g ai/ha): 55
- Plant response rating, Corn (corn (Zea mays); 125 g ai/ha): 75
- Plant response rating, Corn (corn (Zea mays); 250 g ai/ha): 85
- Plant response rating (scale of 0 to 100), Morningglory [1, 17]: 10
- Plant response rating, Morningglory ([1]; 62 g ai/ha): 35
- Plant response rating, Morningglory ([1]; 125 g ai/ha): 40
- Plant response rating, Morningglory ([1]; 250 g ai/ha): 45
- Plant response rating (scale of 0 to 100), Nutsedge, Yellow [2, 17]: 0
- Plant response rating, Nutsedge, Yellow ([2]; 62 g ai/ha): 85
- Plant response rating, Nutsedge, Yellow ([2]; 125 g ai/ha): 0
- Plant response rating, Nutsedge, Yellow ([2]; 250 g ai/ha): 65
- Plant response rating (scale of 0 to 100), Barnyardgrass [3, 17]: 90
- Plant response rating, Barnyardgrass ([3]; 62 g ai/ha): 90
- Plant response rating, Barnyardgrass ([3]; 125 g ai/ha): 95
- Plant response rating, Barnyardgrass ([3]; 250 g ai/ha): 95
- Plant response rating (scale of 0 to 100), Foxtail, Giant [4, 17]: 90
- Plant response rating, Foxtail, Giant ([4]; 62 g ai/ha): 90
- Plant response rating, Foxtail, Giant ([4]; 125 g ai/ha): 95
- Plant response rating, Foxtail, Giant ([4]; 250 g ai/ha): 95
- Plant response rating (scale of 0 to 100), Wheat [5, 17]: 60
- Plant response rating, Wheat ([5]; 62 g ai/ha): 50
- Plant response rating, Wheat ([5]; 125 g ai/ha): 90
- Plant response rating, Wheat ([5]; 250 g ai/ha): 90
- Plant response rating (scale of 0 to 100), Ragweed [6, 17]: 55
- Plant response rating, Ragweed ([6]; 62 g ai/ha): 60
- Plant response rating, Ragweed ([6]; 125 g ai/ha): 75
- Plant response rating, Ragweed ([6]; 250 g ai/ha): 75
- Plant response rating (scale of 0 to 100), Blackgrass [7, 17]: 70
- Plant response rating, Blackgrass ([7]; 62 g ai/ha): 90
- Plant response rating, Blackgrass ([7]; 125 g ai/ha): 90
- Plant response rating, Blackgrass ([7]; 250 g ai/ha): 90
- Plant response rating (scale of 0 to 100), Ryegrass, Italian [8, 17]: 55
- Plant response rating, Ryegrass, Italian ([8]; 62 g ai/ha): 30
- Plant response rating, Ryegrass, Italian ([8]; 125 g ai/ha): 30
- Plant response rating, Ryegrass, Italian ([8]; 250 g ai/ha): 35
- Plant response rating (scale of 0 to 100), Velvetleaf [9, 17]: 0
- Plant response rating, Velvetleaf ([9]; 62 g ai/ha): 10
- Plant response rating, Velvetleaf ([9]; 125 g ai/ha): 45
- Plant response rating, Velvetleaf ([9]; 250 g ai/ha): 65
- Plant response rating (scale of 0 to 100), Soybean (soybean (Glycine max); [17]): 0
- Plant response rating, Soybean (soybean (Glycine max); 62 g ai/ha): 0
- Plant response rating, Soybean (soybean (Glycine max); 125 g ai/ha): 0
- Plant response rating, Soybean (soybean (Glycine max); 250 g ai/ha): 5
- Plant response rating (scale of 0 to 100), Oilseed Rape [10, 17]: 10
- Plant response rating, Oilseed Rape ([10]; 62 g ai/ha): 80
- Plant response rating, Oilseed Rape ([10]; 125 g ai/ha): 85
- Plant response rating, Oilseed Rape ([10]; 250 g ai/ha): 85
- Plant response rating (scale of 0 to 100), Pigweed [11, 17]: 70
- Plant response rating, Pigweed ([11]; 62 g ai/ha): 80
- Plant response rating, Pigweed ([11]; 125 g ai/ha): 85
- Plant response rating, Pigweed ([11]; 250 g ai/ha): 85
- Plant response rating (scale of 0 to 100), Galium [12, 17]: 0
- Plant response rating, Galium ([12]; 62 g ai/ha): 80
- Plant response rating, Galium ([12]; 125 g ai/ha): 80
- Plant response rating, Galium ([12]; 250 g ai/ha): 85
- Plant response rating (scale of 0 to 100), Waterhemp [13, 17]: 75
- Plant response rating, Waterhemp ([13]; 62 g ai/ha): 80
- Plant response rating, Waterhemp ([13]; 125 g ai/ha): 85
- Plant response rating, Waterhemp ([13]; 250 g ai/ha): 90
- Plant response rating (scale of 0 to 100), Johnsongrass [14, 17]: 45
- Plant response rating, Johnsongrass ([14]; 62 g ai/ha): 70
- Plant response rating, Johnsongrass ([14]; 125 g ai/ha): 75
- Plant response rating, Johnsongrass ([14]; 250 g ai/ha): 85
- Plant response rating (scale of 0 to 100), Crabgrass, Large [15, 17]: 95
- Plant response rating, Crabgrass, Large ([15]; 62 g ai/ha): 100
- Plant response rating, Crabgrass, Large ([15]; 125 g ai/ha): 100
- Plant response rating, Crabgrass, Large ([15]; 250 g ai/ha): 100
- Plant response rating (scale of 0 to 100), Barnyardgrass ([16]; 31 g ai/ha): 35
- Plant response rating (scale of 0 to 100), Barnyardgrass ([16]; 62 g ai/ha): 40
- Plant response rating (scale of 0 to 100), Barnyardgrass ([16]; 125 g ai/ha): 60
- Plant response rating (scale of 0 to 100), Barnyardgrass ([16]; 250 g ai/ha): 75
- Plant response rating (scale of 0 to 100), Rice (rice (Oryza sativa); 31 g ai/ha): 15
- Plant response rating (scale of 0 to 100), Rice (rice (Oryza sativa); 62 g ai/ha): 15
- Plant response rating (scale of 0 to 100), Rice (rice (Oryza sativa); 125 g ai/ha): 15
- Plant response rating (scale of 0 to 100), Rice (rice (Oryza sativa); 250 g ai/ha): 45
